{"source": "paper PMC9499525", "about": "“Tissue-restricted inhibition of mTOR using chemical genetics” (Proceedings of the National Academy of Sciences of the …, 2022)", "test_system": "Drosophila larvae (w1118 control and FKBP12 V55G transgenic)", "experiment": "Drosophila larval development (pupae 9 d after egg laying)", "assay_type": "in vivo", "method": "All Drosophila stocks and crosses were maintained on standard cornmeal-molasses food at 25 °C using a 12-h light/dark cycle. To generate UAS-FKBP12 V55G-HA transgenic lines, human FKBP12 V55G-HA ORF was cloned into a pUAST-attB vector between EcoR-I and Xho-I restriction sites. This construct was then integrated into an attB site using phiC31 integrase with the assistance of Rainbow Transgenic Flies, Inc. The driver stocks da-GAL4 (ubiquitous), elav-GAL4 and nSyb-GAL4 (neuronal-specific), Mef2-GAL4 and mhc-GAL4 (musculature), and 2–286-GAL4 and phm-GAL4 (ring-gland-specific) were obtained from Bloomington Drosophila Stock Center. The crossing schemes used in this study are depicted in SI Appendix, Fig. S11. For rapamycin or Rapa*3Z related experiments, fly food was prepared freshly 24 h before each experiment.\nFly food containing ethanol vehicle was used as control. […] Three biological replicates were used for each experiment. Data were analyzed using Prism 9.0 (GraphPad)."}
{"smiles": "CCO/N=C1/C[C@@H]([C@H](C)C[C@@H]2CC[C@@H](O)[C@H](OC)C2)OC(=O)[C@@H]2CCCCN2C(=O)C(=O)[C@]2(O)O[C@@H](CC[C@H]2C)C[C@H](OC)/C(C)=C/C=C/C=C/[C@@H](C)C[C@@H](C)C(=O)[C@H](OC)[C@H](O)/C(C)=C/[C@H]1C", "note": "[Rapa*-3Z]", "values": [{"measurement": "Larval-to-pupal transition, FKBP12 V55G in ring gland (independent driver)", "setting": "2-286-GAL4, 100 µM, 9 d", "result": "nearly eliminated the larval-to-pupal transition"}, {"measurement": "Dose necessary for complete inhibition of larval development", "setting": "FKBP12 V55G animals (ubiquitous da-GAL4), in food, 9 d after egg laying", "result": 100, "unit": "µM"}, {"measurement": "Larval-to-pupal transition, FKBP12 V55G in musculature and nervous system (independent drivers)", "setting": "Mef2-GAL4 and elav-GAL4, 100 µM, 9 d", "result": "significant, but lesser, inhibition"}, {"measurement": "Effect on larval development, ubiquitous FKBP12 V55G expression", "setting": "da-GAL4 > FKBP12 V55G, 100 µM", "result": "potently inhibited larval development"}, {"measurement": "Pupal formation, FKBP12 V55G in musculature and nervous system", "setting": "mhc-GAL4 and nSyb-GAL4, 100 µM, 9 d after egg laying", "result": "similar, but less severe, inhibition of pupal formation"}, {"measurement": "Pupal formation, FKBP12 V55G in ring gland", "setting": "phm-GAL4, 100 µM, 9 d after egg laying", "result": "failed to pupate"}, {"measurement": "Effect on larval development in control flies at 300 and 400 µM", "setting": "w1118, 300 and 400 µM, 14 days after egg laying", "result": "no influence on larval development"}, {"measurement": "Effect on larval development in wild-type animals", "setting": "wild-type (w1118) larvae, compound in food", "result": "no effect"}]}
